According to PubChem BioAssay (NCI):
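Results reflect a 48-hour exposure of cells in 96-well plates to compound at five concentrations. TGI marks complete inhibition of growth.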

Assays:
Assay in all cases: NCI-60 cell line screen, 48 h
[1] = tested on: NCI-H226 lung
[2] = tested on: HL-60(TB) leukemia
[3] = tested on: SW-620 colon
[4] = tested on: SK-MEL-5 melanoma
[5] = tested on: OVCAR-8 ovarian
[6] = tested on: OVCAR-3 ovarian
[7] = tested on: CAKI-1 renal
[8] = tested on: HT29 colon
[9] = tested on: RPMI-8226 leukemia
[10] = tested on: SF-539 CNS
[11] = tested on: CCRF-CEM leukemia
[12] = tested on: HOP-62 NSCLC
[13] = tested on: SNB-75 CNS

| SMILES | TGI [1] | TGI [2] | TGI [3] | TGI [4] | TGI [5] | TGI [6] | TGI [7] | TGI [8] | TGI [9] | TGI [10] | TGI [11] | TGI [12] | TGI [13] |
| --- | --- | --- | --- | --- | --- | --- | --- | --- | --- | --- | --- | --- | --- |
| O=C(CSc1nnc(Cc2ccccc2)o1)Nc1ccc(Cl)cc1 | > 100 µM | > 100 µM | > 100 µM | > 100 µM | > 100 µM | > 100 µM | > 100 µM | > 100 µM | > 100 µM | > 100 µM | > 100 µM | > 100 µM | > 100 µM |
| Clc1ccc(OCc2nnc3sc(-c4ccc(-c5ccc(Cl)cc5Cl)o4)nn23)c(Cl)c1 | 41.5 µM | 96.6 µM | > 100 µM | 44.4 µM | 32.1 µM | 34 µM | 86.2 µM | 51.1 µM | 57.2 µM | 32.2 µM | 68.2 µM | 31.3 µM | 34.1 µM |
| Oc1cc(Cl)cc2cc(Br)cnc12 | > 88.5 µM | 1.37 µM | > 100 µM | 3.24 µM | > 26.9 µM | 7.9 µM | > 27.3 µM | > 100 µM | 47.9 µM | > 100 µM | 9.51 µM | > 55.1 µM | > 100 µM |
| CCOC(OCC)C(CC)[Se]c1ccccc1[N+](=O)[O-] (stereo unspecified) | 18.4 µM | 3.22 µM | > 100 µM | 30.9 µM | 49.9 µM | 6.56 µM | 88.8 µM | 7.31 µM | 23 µM | 5.61 µM | > 62.5 µM | > 74.2 µM | > 100 µM |
| Cc1ccc(C(=O)CC(Cl)=C(Cl)Cl)cc1 | > 100 µM | > 100 µM | > 100 µM | > 100 µM | > 100 µM | > 100 µM | > 100 µM | > 100 µM | 74.3 µM | > 100 µM | 52.1 µM | > 100 µM | > 100 µM |
| O=C1Oc2ccccc2C(=O)/C1=C/N1C(=O)/C(=C/c2ccc([N+](=O)[O-])cc2)SC1=S | 53.4 µM | > 100 µM | > 100 µM | 46.4 µM | 96.7 µM | 5.85 µM | 51.3 µM | > 100 µM | 42.1 µM | 45 µM | > 100 µM | 40.8 µM | 54.3 µM |
| FC(F)(F)c1ccc2c(c1)nc(Cc1ccccc1)n2C[C@@H]1CCCN2CCCCC12 (stereo partly specified) | 40.4 µM | 13.9 µM | > 65.7 µM | 29.6 µM | 29.7 µM | 28 µM | 31.1 µM | 26.8 µM | 82.7 µM | 35.6 µM | > 54.8 µM | 28.7 µM | 29.9 µM |
| Cn1c(N2CCCC2)c(C=O)c(=O)n(C)c1=O | > 100 µM | > 100 µM | > 100 µM | > 100 µM | > 100 µM | > 100 µM | > 100 µM | > 100 µM | > 100 µM | > 100 µM | > 100 µM | > 100 µM | 93 µM |
| O=c1nc2n(cc1/C=C\Br)C1CC(O)C(CO2)O1 (stereo unspecified) | > 100 µM | 54.8 µM | > 100 µM | > 100 µM | > 100 µM | > 100 µM | > 100 µM | > 100 µM | > 100 µM | > 100 µM | > 100 µM | > 100 µM | > 100 µM |
| Cc1cccc2sc(NC(=O)c3cc([N+](=O)[O-])ccc3Cl)nc12 | > 64.1 µM | > 100 µM | 6.35 µM | 5.32 µM | 9.95 µM | 17.4 µM | > 44.8 µM | 4.48 µM | > 100 µM | 6.25 µM | 2.76 µM | > 73.1 µM | > 21.1 µM |
| O=C(O)c1c(-c2c3ccc(=O)cc-3oc3cc(O)ccc23)cc2ccccc2c1-c1ccccc1 | > 100 µM | > 100 µM | > 100 µM | > 100 µM | > 100 µM | > 100 µM | > 100 µM | > 100 µM | > 100 µM | > 100 µM | > 67.3 µM | > 100 µM | > 100 µM |
| COC(=O)[C@H]1[C@H](C(=O)OC)[C@@H](C)c2c(ccc3c2[nH]c2ccccc23)[C@@H]1C | > 100 µM | > 100 µM | > 100 µM | > 100 µM | > 100 µM | > 100 µM | > 100 µM | > 100 µM | > 100 µM | > 100 µM | > 100 µM | > 100 µM | 68.7 µM |
| COc1ccc(/C(Cl)=C(\C=O)c2ccc(F)cc2)cc1 | 67.9 µM | 9.12 µM | > 100 µM | 27.9 µM | > 100 µM | 58 µM | 41 µM | 27.8 µM | 44.6 µM | 50.2 µM | 18.7 µM | 59.3 µM | 8.33 µM |
| CC1=C(C2=C(C)C(=O)C(=O)c3cc(C)ccc32)c2ccc(C)cc2C(=O)C1=O | 6.48 µM | > 100 µM |  | 0.374 µM | 0.54 µM | 0.323 µM | 0.328 µM | 0.705 µM | 0.705 µM | 0.346 µM | > 100 µM | 2.59 µM | 0.868 µM |
| NC(=O)N/N=C(\Cc1nc2ccc(C(=O)c3ccccc3)cc2[nH]c1=O)C(=O)Nc1ccc(Br)cc1 | > 100 µM | > 100 µM | > 100 µM | > 100 µM | > 100 µM | > 100 µM | > 100 µM | > 100 µM | > 100 µM | > 100 µM | > 100 µM | > 100 µM | > 100 µM |
| COC(=O)NCCc1[nH]nc2c1C(=O)C=C(OC)C2=O | 50.5 µM | 44 µM | 43.9 µM | 28.9 µM | 42.8 µM | 32 µM | 45.5 µM | > 100 µM | 53.9 µM | 33.5 µM | 45.8 µM | 36 µM | 40.2 µM |
| COc1ccc(-c2cc(-c3ccc(Nc4ccnc5cc(C(F)(F)F)ccc45)cc3)[nH]c(=O)c2C#N)c2ccccc12 | > 100 µM | > 100 µM | > 100 µM | > 100 µM | > 100 µM | > 100 µM | > 100 µM | > 74.2 µM | > 100 µM | > 53.7 µM | > 56.8 µM | 47.2 µM | 29.9 µM |
| C=C(C)CCC1CCCCC(CN(C)C)C1=O (stereo unspecified) | > 100 µM | > 100 µM | > 100 µM | > 100 µM | > 100 µM | > 100 µM | > 100 µM | > 100 µM | > 100 µM | > 100 µM | > 100 µM | > 100 µM | > 100 µM |
| OC(c1cccs1)c1cc2ccccc2s1 (stereo unspecified) | > 10 µM | > 10 µM | > 10 µM | > 10 µM | > 10 µM | > 10 µM | > 10 µM | > 10 µM | > 10 µM | > 10 µM | > 10 µM | > 10 µM | > 10 µM |
| COC(=O)c1ccc2n1C1CC3CC(CC2C3)C1 | > 100 µM | 54.7 µM | > 100 µM | > 100 µM | > 100 µM | > 100 µM | > 100 µM | > 100 µM | > 100 µM | > 100 µM | > 100 µM | > 100 µM | > 100 µM |
| N=c1c2c3n(c4c(=O)n(-c5ccccc5)c(=S)n(c(=O)n1-c1ccccc1)c24)CCCCC3 | > 100 µM | > 100 µM | > 100 µM | > 100 µM | > 100 µM | > 100 µM | > 100 µM | > 100 µM | > 100 µM | > 100 µM | > 100 µM | > 100 µM | > 100 µM |
| Oc1ccc2c(c1)OCC(O)(c1ccccc1O)C2 (stereo unspecified) | > 100 µM | > 100 µM | > 100 µM | > 100 µM | > 100 µM | > 100 µM | > 100 µM | > 100 µM | > 100 µM | > 100 µM | > 100 µM | > 100 µM | > 100 µM |
| CCSc1nc2sc(C)c(C)c2c(=O)n1-c1ccc(C(=O)O)cc1 | 86.2 µM | > 100 µM | > 100 µM | > 100 µM | > 100 µM | 74.4 µM | > 100 µM | > 100 µM | > 100 µM | 55 µM | > 100 µM | > 100 µM | 70 µM |
| Oc1ccc(-c2nc3cc(C(F)(F)F)ccc3n2CC2CCCN3CCCCC23)cc1 (stereo unspecified) | 32.2 µM | 12.3 µM | 28.4 µM | 27.7 µM | 29.5 µM | 27 µM | 38.8 µM | 34.7 µM | 31.5 µM | 34.6 µM | 31.8 µM | 26 µM | 32.4 µM |
| COC(=O)C1=NN2c3ccccc3C(=O)OCCC2C1 (stereo unspecified) | > 100 µM | > 100 µM | > 100 µM | > 100 µM | > 100 µM | > 100 µM | > 100 µM | > 100 µM | > 100 µM | > 100 µM | > 100 µM | > 100 µM | > 100 µM |
| O=C(O)c1c(CC(Cc2ccc3c(c2)CCCC3)C(=O)O)ccc2c1CCCC2 (stereo unspecified) | > 100 µM | > 100 µM | > 100 µM | > 100 µM | > 100 µM | > 100 µM | > 100 µM | > 100 µM | > 100 µM | > 100 µM | > 100 µM | > 100 µM | > 100 µM |
| O=[N+]([O-])c1ccc(Cl)cc1C1ON=C(c2ccccc2)N1C12CC3CC(CC(C3)C1)C2 (stereo unspecified) | > 100 µM | > 100 µM |  | > 100 µM |  | > 100 µM | > 100 µM | > 100 µM | > 100 µM | > 100 µM | > 100 µM | > 100 µM | > 100 µM |
| O=[N+]([O-])CC(SCc1ccccc1)c1ccc2c(c1)OCO2 (stereo unspecified) | 23.2 µM | 3.68 µM | 15.4 µM | 25 µM | 19.2 µM | 18.3 µM | 28.6 µM | 7.64 µM | 4.03 µM | 10.9 µM | 8.74 µM | 33 µM | 30.6 µM |
